This is an account of results in PMC11220592 (Chemical Science, 2024).

Read-outs that look alike come from different tables or passages of the source.

In assay [1] the target is SARS-CoV-2 nsp13 (Severe acute respiratory syndrome coronavirus 2, UniProt P0DTD1). The format is binding.
Assay [2] has as its target T1, SARS-CoV-2 helicase (nsp13) (Severe acute respiratory syndrome coronavirus 2, UniProt P0DTD1). Particulars: read-out: IC50 for unwinding activity.
Assay [3] has as its target T1, SARS-CoV-2 helicase (nsp13).
Setting [4] is: 100 nM nsp13, compound at 1 μM, 10 nM probe.

As to `CC(C)c1cccc(=O)c(O)c1` [Hino, hinokitiol], the “fluorescence intensity of BODIPY FL ATP-γ-S with nsp13” value (from here on “fluorescence intensity”) in assay [1] (setting [4]) is “did not observe any apparent decrease in the fluorescence intensity”.
For the compound `N[C@@H](CCC(=O)N[C@@H](CS)C(=O)NCC(=O)O)C(=O)O` [GSH, glutathione], in assay [1], the “fluorescence intensity” value is “did not observe any apparent decrease in the fluorescence intensity”.
For the compound `Nc1nc2nc[nH]c2c(=S)[nH]1` [6-TG, 6-thioguanine], the “fluorescence intensity” value in assay [1] (setting [4]) is reported as “did not observe any apparent decrease in the fluorescence intensity”.
As a reminder, the IC50 is the midpoint of a concentration-inhibition curve. In the case of `Nc1ccc([O-])c(=O)cc1.Nc1ccc([O-])c(=O)cc1.Nc1ccc([O-])c(=O)cc1.[Bi+3]` [Bi(Tro-NH2)3, Bi(5-aminotropolonate)3], the IC50 in assay [2] was determined as 360 ± 20 nM; in assay [3] (read-out: IC50 for ATPase) it was 30 nM. Also, the “fold lower ATPase IC50 than that of Bi(NAC)3” value in assay [3] is “over 30 fold”.
In the case of colloidal bismuth subcitrate [CBS], the “fluorescence intensity” value in assay [1] is on record as “decreased fluorescence intensities”.
As for `CC(=O)N[C@@H](CS)C(=O)O` [NAC, N-acetyl cysteine], the “fluorescence intensity” value in assay [1] (setting [4]) was “did not observe any apparent decrease in the fluorescence intensity”.
